Experimental data published in patent US10618914B2 (UNIVERSITY OF PITTSBURGH—OF THE COMMONWEALTH SYSTEM OF …, priority 2015, dated 2020).
Where “and” joins values, the source holds several entries; their conditions need not be identical. Equal entries are not always repeated. Where two headings read alike, the source gives them in different places.

Assays:
Cal33 cells = test: Cal33 growth inhibition; type: cell-based; settings: for GI50: Table 5, * average of 2 experiments
STAT3 = test: HCS STAT3 assay; type: cell-based
[1] = Table 2, read-out: Cal33 (IC50)
[2] = Table 2, read-out: STAT3 (IC50)
[3] = Homo sapiens, CAL-33, Table 1, read-out: Growth Inhibition Cal33 (mean IC50)
[4] = Table 1, read-out: STAT3 (mean IC50)
[5] = Homo sapiens, CAL-33, Table 2, read-out: Cal33 (IC50)

| Compound | IC50 (Cal33 cells; [1]) | IC50 (STAT3; [2]) | also measured |
| --- | --- | --- | --- |
| CC(C)CC1Sc2nnc(-c3[nH]nc4c3CCC4)n2N=C1c1ccc(Cl)c(Cl)c1 (racemic) [compound 10304] | 3.5 µM | 27.1 µM |  |
| COc1ccc(C2=Nn3c(nnc3-c3cc(-c4ccc(Cl)cc4)n[nH]3)SC2C)cc1 (centres unmarked) [Cmpd 24] |  |  | GI50 (Cal33 cells): 2.2 ± 0.3 µM |
| CC1Sc2nnc(-c3nn(Cc4ccccc4)c4c3CCC4)n2N=C1c1ccc(Cl)c(Cl)c1 (centres unmarked) [compound 10491] | 17.4 µM | 5.9 µM |  |
| COc1ccc(C2=Nn3c(nnc3-c3[nH]nc4c3CCCC4)SC2)cc1 [UPCDC10073] |  |  | IC50 (Cal33 cells; [3]): 0.2 µM; IC50 (STAT3; [4]): 17 µM |
| CC1Sc2nnc(-c3cc(-c4ccccc4)n(C)n3)n2N=C1c1ccc(Cl)c(Cl)c1 (centres unmarked) [compound 10543] | 35 µM | 4.8 µM |  |
| c1ccc2c(C3=Nn4c(nnc4-c4[nH]nc5c4CCC5)SC3)c[nH]c2c1 [UPCDC10115] |  |  | IC50 (Cal33 cells; [3]): 0.21 µM; IC50 (STAT3; [4]): 38 µM |
| COc1cccc(C2=Nn3c(nnc3-c3cc(-c4cccc(Cl)c4)n[nH]3)SC2C)c1 (centres unmarked) [compound 10536] | 9.3 µM | 9.1 µM |  |
| COc1ccc(C2=Nn3c(nnc3-c3cc(-c4ccccc4)n(C)n3)SC2C)cc1 (centres unmarked) [compound 10542] | 15.1 µM | 6.5 µM |  |
| COc1ccc(C2=Nn3c(nnc3-c3nn(C(C)=O)c4c3CCC4)SC2C)cc1 (centres unmarked) [compound 10421] | 0.26 µM | 37.1 µM |  |
| CC(C)C1Sc2nnc(-c3cc(-c4ccccc4)n(C)n3)n2N=C1c1ccccc1 (centres unmarked) [compound 10562] | 50 µM | 12.2 µM |  |
| COc1ccc(C2=Nn3c(nnc3-c3cc(-c4ccccc4)n(C(C)=O)n3)SC2C)cc1 (centres unmarked) [compound 10479] | 38.1 µM | 7.9 µM |  |
| Cc1ccc(C2=Nn3c(nnc3-c3[nH]nc4c3CCC4)SC2C)cc1 (centres unmarked) [compound 10472] | 0.18 µM | 41.1 µM |  |
| CC1Sc2nnc(-c3[nH]nc4c3CCC4)n2N=C1c1ccc(Cl)c(Cl)c1 (centres unmarked) [compound 10263, 6-(3,4-Dichlorophenyl)-7-methyl-3-(2,4,5,6-tetrahydrocyclopenta[c]pyrazol-3-yl)-7H-[1,2,4]triazolo[3,4-b][1,3,4]thiadiazine] |  | 8.5 µM and 11 µM |  |
| COc1ccc(C2=Nn3c(nnc3-c3[nH]nc4c3CCC4)SC2)cc1 |  |  | IC50 (Cal33 cells; [3]): 0.15 µM |
| CC(C)C1Sc2nnc(-c3cc(-c4ccccc4)n(C)n3)n2N=C1c1ccc(Cl)c(Cl)c1 (centres unmarked) [compound 10556] | 48.6 µM | 27.3 µM |  |
| O=C(CC1Sc2nnc(-c3cc(-c4ccccc4)n[nH]3)n2N=C1c1ccccc1)N1CCCC1 (centres unmarked) [compound 10410] | 43.5 µM | 37.3 µM |  |
| CC1Sc2nnc(-c3cc(-c4cccc(Cl)c4)n[nH]3)n2N=C1c1ccc(Cl)c(Cl)c1 (centres unmarked) [compound 10538] | 13.7 µM | 32.2 µM |  |
| CC1Sc2nnc(-c3nn(Cc4ccc(OC(F)(F)F)cc4)c4c3CCC4)n2N=C1c1ccc(Cl)c(Cl)c1 (centres unmarked) [compound 10477] | 34.3 µM | 31 µM |  |
| COc1ccc(C2=Nn3c(-c4cc(-c5ccccc5)n[nH]4)nnc3[S+]([O-])C2C)cc1 (centres unmarked) [compound 10534] |  | 26.2 µM | IC50 (Cal33 cells; [5]): 50 µM |

| Compound | IC50 (Cal33 cells; [1]) | IC50 (STAT3; [2]) | also measured |
| --- | --- | --- | --- |
| CC1(C)Sc2nnc(-c3[nH]nc4c3CCC4)n2N=C1c1ccc(Cl)c(Cl)c1 [compound 10283] | 50 µM | 18.6 µM |  |
| Clc1ccc(C2=Nn3c(nnc3-c3[nH]nc4c3CCC4)SC2Cc2ccccc2)cc1Cl (centres unmarked) [compound 10308] | 3.3 µM | 7.5 µM | IC50 (STAT3; FIG. 3, read-out: STAT3 potency (IC50)): < 10 µM |
| CC1Sc2nnc(-c3cc(-c4ccccc4)n[nH]3)n2N=C1c1ccc(N2CCOCC2)cc1 (centres unmarked) [compound 10522] | 9.6 µM | 39.3 µM |  |
| COc1ccc(C2=Nn3c(nnc3-c3[nH]nc4c3CCC4)SC2CCN)cc1 (centres unmarked) [compound 10383] | 2.5 µM | 31.2 µM |  |
| CC1(C)Sc2nnc(-c3cc(-c4ccccc4)n[nH]3)n2N=C1c1ccccc1 [compound 10264] | 50 µM | 45.6 µM |  |
| CC1Sc2nnc(-c3[nH]nc4c3CCC4)n2N=C1c1ccc(Br)cc1 (centres unmarked) [compound 10476] | 0.79 µM | 18.6 µM |  |
| CC1Sc2nnc(-c3[nH]nc4c3CCC4)n2N=C1c1ccc(F)cc1 (racemic) [compound 10282] | 31.3 µM | 27.7 µM |  |
| COc1cccc(C2=Nn3c(nnc3-c3[nH]nc4c3CCC4)SC2C)c1 (centres unmarked) [compound 10471] | 3.9 µM | 40.1 µM |  |
| CC1Sc2nnc(-c3cc(-c4ccccc4)n[nH]3)n2N=C1c1ccc(F)c(F)c1 (centres unmarked) [compound 10532] | 14.2 µM | 8.6 µM |  |
| CC1Sc2nnc(-c3[nH]nc4c3CCC4)n2N=C1c1ccc(Cl)cc1 (centres unmarked) [UPCDC10281] |  | 7.21 µM | IC50 (Cal33 cells; [3]): 0.44 µM; IC50 (Cal33 cells; [5]): 0.44 µM; IC50 (STAT3; [4]): 7.21 µM |
| COC(=O)CC1Sc2nnc(-c3cc(-c4ccccc4)n[nH]3)n2N=C1c1ccccc1 (centres unmarked) [compound 10423] | 37.9 µM | 17.9 µM |  |
| CC1Sc2nnc(-c3cc(-c4ccccc4)n[nH]3)n2N=C1c1ccc(OC(F)(F)F)cc1 (centres unmarked) [compound 10474] | 50 µM | 24.2 µM |  |
| Clc1ccc(C2=Nn3c(nnc3-c3[nH]nc4c3CCCC4)SC2)cc1 [UPCDC10084] |  |  | IC50 (Cal33 cells; [3]): 0.6 µM; IC50 (STAT3; [4]): 21.3 µM |
| CCN(CC)c1ccc(C2=Nn3c(nnc3-c3[nH]nc4c3CCC4)SC2C)cc1 (centres unmarked) [compound 10521] | 1 µM | 6.6 µM |  |
| CC1Sc2nnc(-c3cc(-c4ccccc4)n[nH]3)n2N=C1c1ccccc1 (centres unmarked) [compound 10131] | 26.3 µM | 3 µM |  |
| CC1Sc2nnc(-c3[nH]nc4c3CCC4)n2N=C1c1ccc(F)c(F)c1 (centres unmarked) [compound 10510] | 50 µM | 47.1 µM |  |
| COc1ccc(C2=Nn3c(nnc3C(C)C)SC2C)cc1 (centres unmarked) [UPCDC10332] |  |  | IC50 (Cal33 cells; [3]): 0.16 µM; IC50 (STAT3; [4]): 14.3 µM |
| CC1Sc2nnc(-c3cc(-c4ccc(F)cc4)n[nH]3)n2N=C1c1ccccc1 (racemic) [compound 10135] | 33.4 µM | 3.8 µM |  |
| CCOC(=O)CC1Sc2nnc(-c3cc(-c4ccccc4)n[nH]3)n2N=C1c1ccc(OC)cc1 (centres unmarked) [compound 10448] | 13.6 µM | 15.5 µM |  |

| Compound | IC50 (Cal33 cells; [1]) | IC50 (STAT3; [2]) | also measured |
| --- | --- | --- | --- |
| COc1ccc(C2=Nn3c(nnc3-c3cc(-c4ccccc4)n[nH]3)SC2CC(C)C)cc1 (centres unmarked) [compound 10307] | 11.5 µM |  |  |
| COC(=O)Cn1nc(-c2nnc3n2N=C(c2ccc(OC)cc2)C(C)S3)c2c1CCC2 (centres unmarked) [compound 10437] | 2.8 µM | 25.3 µM |  |
| COc1ccc(C2=Nn3c(nnc3-c3cc(-c4ccccc4)n(C)n3)SC2C(C)C)cc1 (centres unmarked) [compound 10554] | 19.1 µM | 8.3 µM |  |
| COc1cccc(C2=Nn3c(nnc3-c3cc(-c4ccc(Cl)cc4)n[nH]3)SC2C)c1 (centres unmarked) [compound 10535] | 6.3 µM | 7 µM |  |
| COCCC1Sc2nnc(-c3cc(-c4ccc(Cl)cc4)n[nH]3)n2N=C1c1ccc(OC)cc1 (centres unmarked) [compound 10373] | 4.8 µM | 33.2 µM |  |
| COc1cccc(C2=Nn3c(nnc3-c3cc(-c4ccccc4)n[nH]3)SC2C)c1 (centres unmarked) [compound 10475] | 12.4 µM | 7.1 µM |  |
| c1ccc(C2=Nn3c(nnc3-c3[nH]nc4c3CCC4)SC2c2ccccc2)cc1 (racemic) [compound 10298] | 1.1 µM | 26.5 µM |  |
| CC1Sc2nnc(-c3nn(C)c4c3CCC4)n2N=C1c1ccc(Cl)c(Cl)c1 (centres unmarked) [compound 10469] | 3.1 µM | 7.8 µM |  |
| COc1ccc(C2=Nn3c(nnc3-c3cc(-c4cccc(Cl)c4)n[nH]3)SC2C)cc1 (centres unmarked) [compound 10539] | 12.7 µM | 8.7 µM |  |
| COc1ccc(C2=Nn3c(nnc3-c3nn(CC(=O)OC(C)(C)C)c4c3CCC4)SC2C)cc1 (centres unmarked) [compound 10438] | 49.6 µM | 34.1 µM |  |
| Clc1ccc(C2=Nn3c(nnc3-c3[nH]nc4c3CCC4)SC2)cc1 [UPCDC87346005] |  |  | IC50 (Cal33 cells; [3]): 0.77 µM |
| COc1ccc(C2=Nn3c(nnc3-c3cc(-c4ccccc4)n[nH]3)SC2CCN)cc1 (centres unmarked) [compound 10371] | 24.1 µM |  |  |
| COCCC1Sc2nnc(-c3cc(-c4ccccc4)n[nH]3)n2N=C1c1ccc(OC)cc1 (centres unmarked) [Cmpd 31] |  |  | GI50 (Cal33 cells): 0.04 µM |
| Clc1ccc(C2=Nn3c(nnc3-c3cc(-c4ccccc4)n[nH]3)SC2Cc2ccccc2)cc1Cl (centres unmarked) [compound 10309] |  | 22.6 µM |  |
| COc1ccc(C2=Nn3c(nnc3-c3cc(-c4ccccc4)n[nH]3)SC2CCN)cc1 (centres unmarked) [Cmpd 30] |  |  | GI50 (Cal33 cells): 2.5 µM |
| COc1ccc(C2=Nn3c(nnc3-c3cc(-c4ccc(Cl)cc4)n[nH]3)SC2C)cc1 (racemic) [compound 10205] | 2.1 µM and 2 µM |  |  |
| COc1ccc(C2=Nn3c(nnc3-c3cc(-c4ccccc4)n[nH]3)SC2Cc2ccccc2)cc1 (centres unmarked) [compound 10321] |  | 5.8 µM |  |
| COc1ccc(C2=Nn3c(nnc3-c3[nH]nc4c3CCC4)SC2C(C)C)cc1 (centres unmarked) [UPCDC10318] |  |  | IC50 (Cal33 cells; [3]): 0.4 µM; IC50 (Cal33 cells; [5]): 0.4 µM |
